Results on 3 compounds are retold here after article PMC11396935, “Exploration of Compounds with 2-Phenylbenzo[d]oxazole Scaffold as Potential Skin-Lightening Agents through Inhibition of Melanin Biosynthesis and Tyrosinase Activity” (Molecules, 2024).

Entries after “also recorded” stand apart in the source; their conditions may differ.

The subject of data set [1] is B16F10 cellular tyrosinase. As to the kind of experiment: Cellular tyrosinase activity assay in B16F10 cells. It counts as cell-based, murine. The note with it: 1, 2, 5 μM; kojic acid 5 μM; α-MSH 1 μM + IBMX 200 μM, 72 h. The protocol: To investigate the origins of the anti-melanogenic effects of compounds 3, 8, and 13, their impacts on B16F10 cellular tyrosinase inhibition were evaluated. The experiment utilized a similar experimental method and the same concentrations as those used in the melanin content experiment. Compounds 3, 8, and 13 (1, 2, and 5 μM), kojic acid (5 μM: positive control), and stimulators (1 μM α-MSH and 200 μM IBMX) were used in this experiment. Prior to treatment with the stimulators for 72 h, the test samples (3, 8, 13, and kojic acid) were pre-treated for 1 h.
3.9. Cellular Tyrosinase Activity Assay in B16F10 Cells
The effects of compounds 3, 8, and 13 on B16F10 cellular tyrosinase activity were assessed using a previously reported method. B16F10 cells were seeded, treated with the samples and stimulators, and cultured for 72 h in the same manner as for the cellular melanin content assay. To lyse the cultured cells, a lysis buffer was prepared containing 1 mM phenylmethylsulfonyl fluoride, 50 mM phosphate buffer, and 1% Triton X-100 (5:90:5, v/v/v). The cultivated cells were lysed by adding the prepared lysis buffer (100 µL) after washing twice with PBS. The lysed cells were centrifuged for 30 min at 4 °C and 10,000 g after freezing for 1 h at −80 °C. The supernatants (80 µL) and 10 mM L-dopa (20 µL) were added to each well of a 96-well plate and cultivated for 10 min at 37 °C. The optical density was measured at 475 nm using an ELISA reader. Normalization was performed using a Pierce BCA Protein Assay Kit.

In data set [2] the test system is B16F10 tyrosinase in situ. To be noted: compounds 1, 2, 5 μM; kojic acid 5 μM; α-MSH + IBMX 72 h; excess L-dopa.
Description: To evaluate the effect of the compounds on in situ tyrosinase activity, an experiment using B16F10 cells was performed as previously described [34, 35]. […] Excess L-dopa was added to increase their melanin production prior to the acquisition of cell images.
In Situ Tyrosinase Activity Assay Using B16F10 Cells and L-dopa
In situ tyrosinase activity was measured in B16F10 cells using L-dopa, as reported previously [34]. […] The cells were processed as follows: (1) fixing with 4% paraformaldehyde for 40 min, (2) washing with PBS, and (3) permeabilizing with 0.1% Triton X-100 for 2 min. After washing with PBS, the cells were stained with L-dopa (2 mM; 500 μL) at 37 °C for 2 h. Stained images were collected using a camera connected to a microscope (Motic, Hong Kong).
In a further data set the test system is B16F10 cells. As to the kind of experiment: B16F10 cell viability assay (EZ-Cytox). It counts as cell-based, murine. To be noted: 0, 1, 2, 5 μM. The protocol: Since the 2-phenylbenzoxazole compounds 3, 8, and 13 were identified as being potent mushroom tyrosinase inhibitors, they were used in B16F10-cell-based experiments. Before assessing the biological impact of compounds 3, 8, and 13 in the B16F10 cells, the effect of these compounds on B16F10 cell viability was evaluated. The cells were treated with the compounds at concentrations of 0, 1, 2, and 5 μM for 48 and 72 h, respectively.
3.7. B16F10 Cell Viability Assay
Test samples (3, 8, and 13) were added to each well at final concentrations of 0, 1, 2, and 5 μM and cultivated for 48 and 72 h, respectively. Each well was treated with 10 μL of EZ-Cytox solution (EZ-1000®, DoGenBio, Seoul, Republic of Korea) and cultivated for 2 h. The absorbance of each well was measured at 450 nm using an ELISA reader.

In data set [3] the test system is tyrosinase activity in zebrafish larvae. As to the kind of experiment: Tyrosinase activity in zebrafish larvae. It counts as in vivo, zebrafish (Danio rerio). To be noted: compound 8 0.025 mM; kojic acid 20 mM; treated 28 hpf, read 74 hpf. How it is done:
(§1) . Zebrafish embryos obtained by natural mating were dechorionated at 24 hpf and treated with compound 8 (0.025 mM) or kojic acid (20 mM) at 28 hpf. After 46 h, the melanin content and tyrosinase activity were determined.
(§2) 3.13. Measurement of Melanin Content and Tyrosinase Activity in Zebrafish Larvae
(§3) The effects of the 2-phenylbenzo[d]oxazole compound 8 on the melanin content and tyrosinase activity in the zebrafish larvae were assessed using a previously defined procedure with minor modifications. To quantify the melanin content in the zebrafish larvae, zebrafish embryos were obtained through natural mating and operated in a similar manner to the in vivo depigmentation experiment (25 zebrafish embryos per well in a 24-well plate; dechorionation at 24 hpf; test sample treatment (8 [0.025 mM] and kojic acid [20 mM; positive control]) at 28 hpf). Melanin quantification and tyrosinase activity were quantified at 74 hpf. For melanin quantification, the zebrafish larvae were lysed in RIPA buffer (Biosesang, Gyeonggi-do, Korea) and homogenized using a sonicator. […] The absorbance was measured at 405 nm using a microplate reader. For the tyrosinase activity measurement, the supernatants were transferred to new Eppendorf tubes and the protein was quantified using a Pierce BCA protein assay kit, with the absorbance being measured at 570 nm using a microplate reader. […]

For data set [4], the system named is zebrafish larvae. As to the kind of experiment: Melanin content in zebrafish larvae. It counts as in vivo, zebrafish (Danio rerio). To be noted: compound 8 0.025 mM; kojic acid 20 mM; treated 28 hpf, read 74 hpf. The protocol: as §1, §2, §3
Data set [5] has as its system zebrafish larvae. The data set is described as follows: In vivo depigmentation experiment using zebrafish embryos.
Description: Zebrafish embryos were used in this study. […] The zebrafish embryos were obtained through natural mating in our laboratory. The chorion of the zebrafish embryos was removed 24 h post-fertilization (hpf).
In Vivo Depigmentation Experiment Using Zebrafish Embryos
A depigmentation experiment was performed using zebrafish embryos, as previously described [38, 49, 50]. Wild-type zebrafish (Danio rerio) were maintained in a fish tank at 28 °C and fed with dried brine shrimp (Artemia salina, San Francisco Bay Brand, San Francisco, CA, USA) three times daily. The zebrafish embryos were obtained through natural mating in mating cages. The obtained zebrafish embryos were transferred to a 90 mm culture dish containing 200 μL of E3-methylene blue (MB) solution, consisting of 0.001% MB, 0.17 mM KCl, 0.33 mM CaCl2, 0.33 mM MgSO4, and 5 mM NaCl, and incubated in an incubator set at 28 °C. At 24 h post-fertilization (hpf), the zebrafish embryos were dechorionated using pronase (Sigma-Aldrich, St. Louis, MO, USA). […] The 48-well plates were incubated in an incubator set at 28 °C for 48 h. At 76 hpf, the zebrafish larvae were mounted on a 1% methylcellulose block after anesthesia with tricaine methanesulfonate (Thermo Fisher Scientific, Waltham, MA, USA), and photographs of the zebrafish larvae were obtained using a SMZ745T stereoscopic microscope (Nikon, Tokyo, Japan). The pigmented areas of the zebrafish larvae were determined using the CS analyzer 3.0 image analysis software (ATTO, Tokyo, Japan).
Setting [6] is: kojic acid 20 mM, compound 8 0.025 mM, compound 13 0.025 and 0.05 mM, 76 hpf.

For the compound `Cc1ccc2nc(-c3ccc(O)cc3O)oc2c1` [Compound 3, 4-(6-Methylbenzo[d]oxazol-2-yl)benzene-1,3-diol], the “B16F10 cellular tyrosinase activity” value in data set [1] is “reduced the stimulator-induced tyrosinase activity in a concentration-dependent manner”. The “melanin formation, in situ tyrosinase activity in B16F10 cells” value (“melanin formation” below) in data set [2] was “reduced melanin formation in a concentration-dependent manner”. For the same compound, in the data set on B16F10 cells, the “cytotoxicity to B16F10 cells, 48 h” value is recorded as “not cytotoxic” and the “cytotoxicity to B16F10 cells, 72 h” value is listed as “weak cytotoxicity at the highest concentration tested”.

Take `Oc1ccc(-c2nc3ccc(Cl)cc3o2)c(O)c1` [Compound 8, 4-(6-Chlorobenzo[d]oxazol-2-yl)benzene-1,3-diol]: the “B16F10 cellular tyrosinase activity” value in data set [1] was “reduced the stimulator-induced tyrosinase activity in a concentration-dependent manner”. Besides, in data set [2], the “melanin formation” value is reported as “reduced melanin formation in a concentration-dependent manner”. In addition, in data set [3], the “% tyrosinase activity in zebrafish larvae, vs untreated control (100%)” value worked out at 29%. The “melanin content of zebrafish larvae, vs untreated control (100%)” value in the data set on zebrafish larvae [4] is on record as 35%. In the data set on B16F10 cells, the “cytotoxicity to B16F10 cells, 48 h” value was “not cytotoxic” and the “cytotoxicity to B16F10 cells, 72 h” value is listed as “did not show cytotoxicity”. The “toxicity in zebrafish embryos” value in the data set on zebrafish larvae [5] (0.05 mM) was “weak toxicity”. In addition, in the data set on zebrafish larvae [5] (setting [6]), the “depigmentation effect on zebrafish larvae (photographs)” value was “substantially higher depigmentation effects on zebrafish larvae than kojic acid; also recorded: strong potency at 0.025 mM, similar to 13 at 0.05 mM” and the “pigmentation area of zebrafish larvae (CS analyzer)” value was “smallest pigmentation area”.

For the compound `Cc1ccc2oc(-c3ccc(O)cc3O)nc2c1` [Compound 13, 4-(5-Methylbenzo[d]oxazol-2-yl)benzene-1,3-diol], the “B16F10 cellular tyrosinase activity” value in data set [1] is on record as “reduced the stimulator-induced tyrosinase activity in a concentration-dependent manner”. Further, the “melanin formation” value in data set [2] is reported as “reduced melanin formation in a concentration-dependent manner”. Moreover, in the data set on B16F10 cells, the “cytotoxicity to B16F10 cells, 48 h” value is recorded as “not cytotoxic” and the “cytotoxicity to B16F10 cells, 72 h” value is “did not show cytotoxicity”. In addition, the “depigmentation effect on zebrafish larvae (photographs)” value in the data set on zebrafish larvae [5] (setting [6]) is on record as “substantially higher depigmentation effects on zebrafish larvae than kojic acid; also recorded: significantly stronger depigmentation efficacy than kojic acid”.
